Assay: Hydrolysis rate / drug release rate of the compounds (release of JAK inhibitor, HPLC)
Assay type: physicochemical
Conditions: % release of JAK inhibitor from sample in acetonitrile/water=7/3 (v/v), 37° C. constant temperature shaker, sampled days 1-4, HPLC
How it was run: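 HPLC quantified parent JAK inhibitor freed from each compound, calibrated with 0.0002–0.08 mg/mL standards. Samples in acetonitrile/water 7/3 were kept sealed at 37° C and analysed at day 0 and on days 1 to 4. % release was computed from sample weight, curve slope/intercept and the molecular-weight ratio.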

SMILES	Release Rate (%/day)
CNS(=O)(=O)C[C@H]1CC[C@H](N(C)c2ncnc3c2ccn3COC(=O)C(C)c2cccc(C(=O)c3ccccc3)c2)CC1 (stereo partly drawn) [Ex. 90, (4-(Methyl ((trans)-4-((N-methylsulfamoyl)methyl)cyclohexyl)amino)-7H-pyrrolo [2,3-d]pyrimidin-7-yl) methyl 2-(3-benzoylphenyl) propanoate]	0.35 %/day
CNS(=O)(=O)C[C@H]1CC[C@H](N(C)c2ncnc3c2ccn3COC(=O)[C@@H](NC(=O)OC(C)(C)C)c2ccccc2)CC1 [Ex. 91, (4-(Methyl ((trans)-4-((N-methylsulfamoyl)methyl)cyclohexyl)amino)-7H-pyrrolo [2,3-d]pyrimidin-7-yl) methyl (S)-2-((tert-butoxycarbonyl)amino)-2-phenylacetate]	1.65 %/day
CNS(=O)(=O)C[C@H]1CC[C@H](N(C)c2ncnc3c2ccn3COC(=O)Cc2ccccc2Nc2c(Cl)cccc2Cl)CC1 [Ex. 92, (4-(Methyl ((trans)-4-((N-methylsulfamoyl)methyl)cyclohexyl)amino)-7H-pyrrolo [2,3-d]pyrimidin-7-yl) methyl 2-(2-((2,6-dichlorophenyl)amino)phenyl) acetate]	0.82 %/day
CNS(=O)(=O)C[C@H]1CC[C@H](N(C)c2ncnc3c2ccn3COC(=O)Cc2ccc(NC(C)=O)cc2)CC1 [Ex. 93, (4-(Methyl ((trans)-4-((N-methylsulfamoyl)methyl)cyclohexyl)amino)-7H-pyrrolo [2,3-d]pyrimidin-7-yl) methyl 2-(4-acetamidophenyl) acetate]	0.83 %/day
CCc1cccc2c3c([nH]c12)C(CC)(CC(=O)OCn1ccc2c(N(C)[C@H]4CC[C@H](CS(=O)(=O)NC)CC4)ncnc21)OCC3 (stereo partly drawn) [Ex. 94, (4-(Methyl ((trans)-4-((N-methylsulfamoyl)methyl)cyclohexyl)amino)-7H-pyrrolo [2,3-d]pyrimidin-7-yl) methyl 2-(1,8-diethyl-1,3,4,9-tetrahydropyran [3,4-b]indol-1-yl) acetate]	0.72 %/day
CC(C(=O)OCn1ccc2c(-c3cnn([C@H](CC#N)C4CCCC4)c3)ncnc21)c1cccc(C(=O)c2ccccc2)c1 (stereo partly drawn) [Ex. 99, (4-(1-((R)-2-cyano-1-cyclopentylethyl)-1H-pyrazol-4-yl)-7H-pyrrolo [2,3-d]pyrimidin-7-yl) methyl 2-(3-benzoylphenyl) propanoate]	0.21 %/day
CC(C(=O)OCn1ccc2c(-c3cnn([C@H](CC#N)C4CCCC4)c3)ncnc21)c1ccc(-c2ccccc2)c(F)c1 (stereo partly drawn) [Ex. 100, (4-(1-((R)-2-cyano-1-cyclopentylethyl)-1H-pyrazol-4-yl)-7H-pyrrolo [2,3-d]pyrimidin-7-yl) methyl 2-(2-fluoro-[1, 1′-biphenyl]-4-yl) propanoate]	0.24 %/day
COc1ccc2c(c1)c(CC(=O)OCn1ccc3c(-c4cnn([C@H](CC#N)C5CCCC5)c4)ncnc31)c(C)n2C(=O)c1ccc(Cl)cc1 [Ex. 104, (R)-2-(4-(1-(2-cyano-1-cyclopentylethyl)-1H-pyrazol-4-yl)-7H-pyrrolo [2,3-d]pyrimidin-7-yl) methyl 2-(1-(4-chlorobenzoyl)-5-methoxy-2-methyl-1H-indol-3-yl) acetate]	0.45 %/day
CCC(C(=O)OCn1ccc2c(-c3cnn([C@H](CC#N)C4CCCC4)c3)ncnc21)c1ccc(N2Cc3ccccc3C2=O)cc1 (stereo partly drawn) [Ex. 105, (4-(1-((R)-2-cyano-1-cyclopentylethyl)-1H-pyrazol-4-yl)-7H-pyrrolo [2,3-d]pyrimidin-7-yl) methyl 2-(4-(1-oxoisoindolin-2-yl)phenyl) butanoate]	0.17 %/day
Cc1c(Cl)cccc1Nc1ccccc1C(=O)OCn1ccc2c(-c3cnn([C@H](CC#N)C4CCCC4)c3)ncnc21 [Ex. 107, (R)-(4-(1-(2-cyano-1-cyclopentylethyl)-1H-pyrazol-4-yl)-7H-pyrrolo [2,3-d]pyrimidin-7-yl) methyl 2-((3-chloro-2-methylphenyl)amino) benzoate]	0.22 %/day
CC(=O)Nc1ccc(CC(=O)OCn2ccc3c(-c4cnn([C@H](CC#N)C5CCCC5)c4)ncnc32)cc1 [Ex. 110, (R)-(4-(1-(2-cyano-1-cyclopentylethyl)-1H-pyrazol-4-yl)-7H-pyrrolo [2,3-d]pyrimidin-7-yl) methyl 2-(4-acetamidophenyl) acetate]	0.08 %/day
CNS(=O)(=O)CC1CCC(N(C)c2ncnc3c2ccn3COC(=O)C(C)c2ccc(-c3ccccc3)c(F)c2)CC1 (stereo not drawn) [Ex. 113, (4-(Methyl ((trans)-4-((N-methylsulfamoyl)methyl)cyclohexyl)amino)-7H-pyrrolo [2,3-d]pyrimidin-7-yl) methyl 2-(2-fluoro-[1, 1′-biphenyl]-4-yl) propanoate]	0.42 %/day
CNS(=O)(=O)CC1CCC(N(C)c2ncnc3c2ccn3COC(=O)Cc2c(C)n(C(=O)c3ccc(Cl)cc3)c3ccc(OC)cc23)CC1 (stereo not drawn) [Ex. 116, (4-(Methyl ((trans)-4-((N-methylsulfamoyl)methyl)cyclohexyl)amino)-7H-pyrrolo [2,3-d]pyrimidin-7-yl) methyl 2-(1-(4-chlorobenzoyl)-5-methoxy-2-methyl-1H-indol-3-yl) acetate]	0.42 %/day
CCC(C(=O)OCn1ccc2c(N(C)C3CCC(CS(=O)(=O)NC)CC3)ncnc21)c1ccc(N2Cc3ccccc3C2=O)cc1 (stereo not drawn) [Ex. 117, (4-(Methyl ((trans)-4-((N-methylsulfamoyl)methyl)cyclohexyl)amino)-7H-pyrrolo [2,3-d]pyrimidin-7-yl) methyl 2-(4-(1-)oxoisoindolin-2-yl) phenyl) butanoate]	0.08 %/day
CNS(=O)(=O)C[C@H]1CC[C@H](N(C)c2ncnc3c2ccn3COC(=O)c2ccccc2Nc2cccc(Cl)c2C)CC1 [Ex. 120, (4-(Methyl ((trans)-4-((N-methylsulfamoyl)methyl)cyclohexyl)amino)-7H-pyrrolo [2,3-d]pyrimidin-7-yl) methyl 2-((3-chloro-2-methylphenyl)amino) benzoate]	0.42 %/day
CCS(=O)(=O)N1CC(CC#N)(n2cc(-c3ncnc4c3ccn4COC3=C(C(=O)Nc4ncc(C)s4)N(C)S(=O)(=O)c4ccccc43)cn2)C1 [Ex. 122, 4-((4-(1-(3-(Cyanomethyl)-1-(ethylsulfonyl)azetidin-3-yl)-1H-pyrazol-4-yl)-7H-pyrrolo [2,3-d]pyrimidin-7-yl)methoxy)-2-methyl-N-(5-methylthiazol-2-yl)-2H-benzo [e] [1, 2] thiazine-3-carboxamide 1,1-dioxide]	15.32 %/day
CC[C@@H]1CN(C(=O)NCC(F)(F)F)C[C@@H]1c1cnc2cnc3c(ccn3C(=O)[C@@H](C)c3ccc(CC(C)C)cc3)n12 [Ex. 123, (3S, 4R)-3-ethyl-4-(3-((S)-2-(4-isobutylphenyl)propanoyl)-3H-imidazo [1,2-a]pyrrolo [2,3-e]pyrazin-8-yl)-N-(2,2,2-trifluoroethyl) pyrrolidine-1-carboxamide]	3.02 %/day
CC[C@@H]1CN(C(=O)NCC(F)(F)F)C[C@@H]1c1cnc2cnc3c(ccn3C(=O)C(C)c3ccc(CC(C)C)cc3)n12 (stereo partly drawn) [Ex. 124, (3S, 4R)-3-ethyl-4-(3-(2-(4-isobutylphenyl)propanoyl)-3H-imidazo [1,2-a]pyrrolo [2,3-e]pyrazin-8-yl)-N-(2,2,2-trifluoroethyl) pyrrolidine-1-carboxamide]	2.75 %/day
CC[C@@H]1CN(C(=O)NCC(F)(F)F)C[C@@H]1c1cnc2cnc3c(ccn3C(=O)C(C)c3ccc(-c4ccccc4)c(F)c3)n12 (stereo partly drawn) [Ex. 125, (3S, 4R)-3-ethyl-4-(3-(2-(2-fluoro-[1, 1′-biphenyl]-4-yl)propanoyl)-3H-imidazo [1,2-a]pyrrolo [2,3-e]pyrazin-8-yl)-N-(2,2,2-trifluoroethyl) pyrrolidine-1-carboxamide]	6.17 %/day
CC[C@@H]1CN(C(=O)NCC(F)(F)F)C[C@@H]1c1cnc2cnc3c(ccn3C(=O)C(C)c3cccc(C(=O)c4ccccc4)c3)n12 (stereo partly drawn) [Ex. 126, (3R, 4S)-3-(3-(2-(3-benzoylphenyl)propanoyl)-3H-imidazo [1,2-a]pyrrolo [2,3-e]pyrazin-8-yl)-4-ethyl-N-(2,2,2-trifluoroethyl) pyrrolidine-1-carboxamide]	7.80 %/day
CC[C@@H]1CN(C(=O)NCC(F)(F)F)C[C@@H]1c1cnc2cnc3c(ccn3C(=O)c3ccccc3Nc3cccc(Cl)c3C)n12 [Ex. 130, (3R, 4S)-3-(3-(2-((3-chloro-2-methylphenyl)amino)benzoyl)-3H-imidazo [1,2-a]pyrrolo [2,3-e]pyrazin-8-yl)-4-ethyl-N-(2,2,2-trifluoroethyl) pyrrolidine-1-carboxamide]	11.67 %/day
CC[C@@H]1CN(C(=O)NCC(F)(F)F)C[C@@H]1c1cnc2cnc3c(ccn3C(=O)[C@@H](C)c3ccc4cc(OC)ccc4c3)n12 [Ex. 131]	3.56 %/day
CC[C@@H]1CN(C(=O)NCC(F)(F)F)C[C@@H]1c1cnc2cnc3c(ccn3C(=O)Cc3c(C)n(C(=O)c4ccc(Cl)cc4)c4ccc(OC)cc34)n12 [Ex. 133, (3R, 4S)-3-(3-(2-(1-(4-Chlorobenzoyl)-5-methoxy-2-methyl-1H-indol-3-yl)acetyl)-3H-imidazo [1,2-a]pyrrolo [2,3-e]pyrazin-8-yl)-4-ethyl-N-(2,2,2-trifluoroethyl) pyrrolidine-1-carboxamide]	10.13 %/day
CCC(C(=O)n1ccc2c1ncc1ncc([C@H]3CN(C(=O)NCC(F)(F)F)C[C@H]3CC)n12)c1ccc(N2Cc3ccccc3C2=O)cc1 (stereo partly drawn) [Ex. 138]	2.15 %/day

Source: patent US12290519B2, “Anti-inflammatory coupling compound drug, and preparation method therefor and use thereof” (COVAL BIOPHARMA (SHANGHAI) CO., LTD., priority 2021, dated 2025)
